Our source for the mutagenic call values is PubChem BioAssay AID1259407 (Chemical Carcinogenesis Research Information System (CCRIS), 2018).

The source made the active and inactive calls. How the calls were made is not given here.

In this data set the test system is CCRIS mutagenicity, Ames/micronucleus/aberration tests. The data set is described as follows: CCRIS mutagenicity studies.
Where [1] appears, read: Test System: AMES SALMONELLA TYPHIMURIUM, Strain/Indicator: TA98, Metabolic Activation: NONE, Method: STANDARD PLATE.
Where [2] appears, read: Test System: AMES SALMONELLA TYPHIMURIUM, Strain/Indicator: TA100, Metabolic Activation: NONE, Method: STANDARD PLATE.
Where [3] appears, read: Test System: AMES SALMONELLA TYPHIMURIUM, Strain/Indicator: TA1535, Metabolic Activation: HAMSTER, LIVER, S-9, AROCLOR 1254, Method: STANDARD PLATE.
Where [4] appears, read: Test System: AMES SALMONELLA TYPHIMURIUM, Strain/Indicator: TA1535, Metabolic Activation: NONE, Method: STANDARD PLATE.
Setting [5] is: Test System: AMES SALMONELLA TYPHIMURIUM, Strain/Indicator: TA98, Metabolic Activation: S-9, Method: STANDARD PLATE.
The mark [6] stands for this setting: Test System: AMES SALMONELLA TYPHIMURIUM, Strain/Indicator: TA100, Metabolic Activation: NONE, Method: PREINCUBATION

For `Cl/C=C/CCl`, the mutagenic call (End Point: IN VITRO CHROMOSOMAL ABERRATIONS, Test System: CHL CELLS, Metabolic Activation: RAT, LIVER, S-9, SODIUM PHENOBARBITAL AND 5,6-BENZOFLAVONE) is “active; positive (structural and ploidy changes)”; the mutagenic call (End Point: IN VITRO CHROMOSOMAL ABERRATIONS, Test System: CHO CELLS, Metabolic Activation: NONE) is “inactive; negative; previous trial yielded positive result at 49.1 ug/ml but no dose-respo”; the mutagenic call (End Point: IN VITRO CHROMOSOMAL ABERRATIONS, Test System: CHO CELLS, Metabolic Activation: RAT, LIVER, S-9, AROCLOR 1254) was “inactive; negative”; the mutagenic call (Test System: AMES SALMONELLA TYPHIMURIUM, Strain/Indicator: RSJ100, Metabolic Activation: NONE, Method: VAPOR PHASE) is “active; positive”; the mutagenic call (Test System: AMES SALMONELLA TYPHIMURIUM, Strain/Indicator: TA98, Metabolic Activation: HAMSTER, LIVER, S-9, AROCLOR 1254, Method: STANDARD PLATE) was “active; positive”; the mutagenic call (Test System: AMES SALMONELLA TYPHIMURIUM, Strain/Indicator: TA98, Metabolic Activation: NONE, Method: DESICCATOR) is “active; positive”. For the same molecule, the mutagenic call is, setting by setting: under setting [1], “active; positive”; (Test System: AMES SALMONELLA TYPHIMURIUM, Strain/Indicator: TA98, Metabolic Activation: RAT, LIVER, S-9, AROCLOR 1254, Method: DESICCATOR) “active; positive”; (Test System: AMES SALMONELLA TYPHIMURIUM, Strain/Indicator: TA98, Metabolic Activation: RAT, LIVER, S-9, AROCLOR 1254, Method: STANDARD PLATE) “active; positive”; (Test System: AMES SALMONELLA TYPHIMURIUM, Strain/Indicator: TA100, Metabolic Activation: HAMSTER, LIVER, S-9, AROCLOR 1254, Method: STANDARD PLATE) “active; positive”; (Test System: AMES SALMONELLA TYPHIMURIUM, Strain/Indicator: TA100, Metabolic Activation: NONE, Method: DESICCATOR) “active; positive”; under setting [2], “active; positive”. Further, the mutagenic call is “active; positive” (Test System: AMES SALMONELLA TYPHIMURIUM, Strain/Indicator: TA100, Metabolic Activation: RAT, LIVER, S-9, AROCLOR 1254, Method: DESICCATOR); “active; positive” (Test System: AMES SALMONELLA TYPHIMURIUM, Strain/Indicator: TA100, Metabolic Activation: RAT, LIVER, S-9, AROCLOR 1254, Method: STANDARD PLATE); “active; positive” under setting [3]; “active; positive” (Test System: AMES SALMONELLA TYPHIMURIUM, Strain/Indicator: TA1535, Metabolic Activation: NONE, Method: DESICCATOR); “active; positive” under setting [4]; “active; positive” (Test System: AMES SALMONELLA TYPHIMURIUM, Strain/Indicator: TA1535, Metabolic Activation: RAT, LIVER, S-9, AROCLOR 1254, Method: DESICCATOR). Also, the mutagenic call runs as follows: (Test System: AMES SALMONELLA TYPHIMURIUM, Strain/Indicator: TA1535, Metabolic Activation: RAT, LIVER, S-9, AROCLOR 1254, Method: STANDARD PLATE) “active; positive”; (Test System: AMES SALMONELLA TYPHIMURIUM, Strain/Indicator: TA1537, Metabolic Activation: HAMSTER, LIVER, S-9, AROCLOR 1254, Method: STANDARD PLATE) “inactive; negative”; (Test System: AMES SALMONELLA TYPHIMURIUM, Strain/Indicator: TA1537, Metabolic Activation: NONE, Method: STANDARD PLATE) “inactive; negative”; (Test System: AMES SALMONELLA TYPHIMURIUM, Strain/Indicator: TA1537, Metabolic Activation: RAT, LIVER, S-9, AROCLOR 1254, Method: STANDARD PLATE) “inactive; negative”; (Test System: AMES SALMONELLA TYPHIMURIUM, Strain/Indicator: TPT100, Metabolic Activation: NONE, Method: VAPOR PHASE) “active; positive”; (Test System: UDS HUMAN HEPATOCYTES, Strain/Indicator: THY INCORP, Metabolic Activation: NONE, Method: AUTORADIOGRAPHY) “active; positive”. Besides, the mutagenic call was “active; positive” (Test System: UDS RAT HEPATOCYTES, Strain/Indicator: THY INCORP, Metabolic Activation: NONE, Method: AUTORADIOGRAPHY) and “inactive; negative” (Test System: UDS RAT HEPATOCYTES, Strain/Indicator: THY INCORP, Metabolic Activation: NONE, Method: IN VIVO-IN VITRO).

Regarding `C#CC(OC(=O)C1C(C=C(C)C)C1(C)C)/C(C)=C/CC` (configuration not stated), the mutagenic call (Test System: AMES SALMONELLA TYPHIMURIUM, Strain/Indicator: TA98, Metabolic Activation: NONE, Method: MICROSUSPENSION) is “inactive; negative”; the mutagenic call (Test System: AMES SALMONELLA TYPHIMURIUM, Strain/Indicator: TA98, Metabolic Activation: S-9, Method: MICROSUSPENSION) is “inactive; negative”; the mutagenic call (Test System: AMES SALMONELLA TYPHIMURIUM, Strain/Indicator: TA100, Metabolic Activation: NONE, Method: MICROSUSPENSION) was “inactive; negative”; the mutagenic call (Test System: AMES SALMONELLA TYPHIMURIUM, Strain/Indicator: TA100, Metabolic Activation: S-9, Method: MICROSUSPENSION) was “inactive; negative”.

For `CC(C)=CCC/C(C)=C/CO`, the mutagenic call is “inactive; negative” under setting [1]; “inactive; negative” under setting [5]; “inactive; negative” under setting [2]; “inactive; negative” (Test System: AMES SALMONELLA TYPHIMURIUM, Strain/Indicator: TA100, Metabolic Activation: S-9, Method: STANDARD PLATE).

With `C/C(O)=C1/C(=O)[C@@H]2[C@H]3c4c[nH]c5cccc(c45)C[C@H]3C(C)(C)N2C1=O`, the mutagenic call under setting [6] was “inactive; negative” and the mutagenic call (Test System: AMES SALMONELLA TYPHIMURIUM, Strain/Indicator: TA100, Metabolic Activation: RAT, LIVER, S-9, PHENOBARBITAL, Method: PREINCUBATION) is “inactive; negative”.

For `CC(C)=CCCC(C)CCO` (configuration not stated), the mutagenic call by setting is: under setting [1], “inactive; negative”; under setting [5], “inactive; negative”; under setting [2], “inactive; negative”.

Take `Oc1c(Cl)cc(Cl)c2cccnc12`: the mutagenic call runs as follows: (Test System: AMES SALMONELLA TYPHIMURIUM, Strain/Indicator: TA98, Metabolic Activation: NONE, Method: PREINCUBATION) “inactive; negative”; (Test System: AMES SALMONELLA TYPHIMURIUM, Strain/Indicator: TA98, Metabolic Activation: RAT, LIVER, S-9, Method: PREINCUBATION) “inactive; negative”; under setting [6], “inactive; negative”; (Test System: AMES SALMONELLA TYPHIMURIUM, Strain/Indicator: TA100, Metabolic Activation: RAT, LIVER, S-9, Method: PREINCUBATION) “inactive; negative”.

As to `O=[N+]([O-])OCC(CO[N+](=O)[O-])O[N+](=O)[O-]`, the mutagenic call is, setting by setting: (Test System: AMES SALMONELLA TYPHIMURIUM, Strain/Indicator: TA100(NR), Metabolic Activation: NONE, Method: STANDARD PLATE) “inactive; negative”; under setting [2], “inactive; negative”; (Test System: AMES SALMONELLA TYPHIMURIUM, Strain/Indicator: TA102, Metabolic Activation: HAMSTER, LIVER, S-9, AROCLOR 1254, Method: STANDARD PLATE) “inactive; negative”; (Test System: AMES SALMONELLA TYPHIMURIUM, Strain/Indicator: TA102, Metabolic Activation: NONE, Method: STANDARD PLATE) “inactive; negative”; under setting [3], “active; positive”; under setting [4], “active; positive”. Besides, the mutagenic call is, setting by setting: (Test System: AMES SALMONELLA TYPHIMURIUM, Strain/Indicator: TA1538, Metabolic Activation: NONE, Method: STANDARD PLATE) “inactive; negative”; (Test System: AMES SALMONELLA TYPHIMURIUM, Strain/Indicator: TA1975, Metabolic Activation: NONE, Method: STANDARD PLATE) “inactive; negative”; (Test System: AMES SALMONELLA TYPHIMURIUM, Strain/Indicator: YG1026, Metabolic Activation: NONE, Method: STANDARD PLATE) “inactive; negative”.
